Reference: PubChem BioAssay AID248 (DTP/NCI, 2004)
Where “and” joins values, the source holds several entries; their conditions need not be identical. Identical values can stand only once. Inconclusive results and toxic doses are left out. Cut-off read from the data, not from the text of the source: active = T/C of 150% or more; inactive = T/C below 125%.

Tested on: L1210 leukemia ip in BDF1 mice, survival T/C
Test: NCI In Vivo Anticancer Drug Screen. Data for tumor model L1210 Leukemia (intraperitoneal) in B6D2F1 (BDF1) mice
Settings: endpoint: mean survival time, higher = longer survival
How it was run: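 Tumor cells were implanted, animals were treated, and survival was followed. The result divides the treated measurement by the vehicle-control measurement.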

[1] = dose: 100.0 mg/kg/injection, schedule: Q01DX009 (ip), vehicle: saline with Tween-80
[2] = dose: 200.0 mg/kg/injection, schedule: Q01DX009 (ip), vehicle: saline with Tween-80
[3] = dose: 100.0 mg/kg/injection, schedule: Q04DX003 (ip), vehicle: saline with Tween-80
[4] = dose: 200.0 mg/kg/injection, schedule: Q04DX003 (ip), vehicle: saline with Tween-80
[5] = dose: 400.0 mg/kg/injection, schedule: Q04DX003 (ip), vehicle: saline with Tween-80

Measured: T/C

OCCOc1cc(Cl)c(Cl)cc1Cl
inactive: dose: 25.0 mg/kg/injection, schedule: Q04DX003 (ip), vehicle: carboxymethylcellulose (CMC) 95 % of control | dose: 50.0 mg/kg/injection, schedule: Q01DX009 (ip), vehicle: carboxymethylcellulose (CMC) 93 % of control and 102 % of control | dose: 50.0 mg/kg/injection, schedule: Q04DX003 (ip), vehicle: carboxymethylcellulose (CMC) 101 % of control | dose: 100.0 mg/kg/injection, schedule: Q01DX009 (ip), vehicle: carboxymethylcellulose (CMC) 101 % of control and 103 % of control | [1] 103 % of control | dose: 100.0 mg/kg/injection, schedule: Q04DX002 (ip), vehicle: carboxymethylcellulose (CMC) 102 % of control and 103 % of control | dose: 100.0 mg/kg/injection, schedule: Q04DX003 (ip), vehicle: carboxymethylcellulose (CMC) 95 % of control | [2] 87 % of control | dose: 200.0 mg/kg/injection, schedule: Q04DX002 (ip), vehicle: carboxymethylcellulose (CMC) 103 % of control

CC(=O)/C=C(\C)OC1CCCCC1
inactive: [3] 98 % of control | [4] 95 % of control | [5] 91 % of control

BrCCOC1CCCCO1 (stereo unspecified)
inactive: dose: 25.0 mg/kg/injection, schedule: Q01DX005 (ip), vehicle: saline 105 % of control | dose: 50.0 mg/kg/injection, schedule: Q01DX005 (ip), vehicle: saline 117 % of control | dose: 100.0 mg/kg/injection, schedule: Q01DX005 (ip), vehicle: saline 107 % of control | dose: 200.0 mg/kg/injection, schedule: Q01DX005 (ip), vehicle: saline 105 % of control

N#CCCSCCC#N
inactive: dose: 7.5 mg/kg/injection, schedule: Q01DX009 (ip), vehicle: saline 101 % of control | [3] 105 % of control | dose: 100.0 mg/kg/injection, schedule: Q04DX003 (ip), vehicle: saline 115 % of control | dose: 150.0 mg/kg/injection, schedule: Q01DX009 (ip), vehicle: saline 93 % of control | [4] 100 % of control | dose: 200.0 mg/kg/injection, schedule: Q04DX003 (ip), vehicle: saline 101 % of control | dose: 300.0 mg/kg/injection, schedule: Q01DX009 (ip), vehicle: saline 98 % of control | [5] 108 % of control | dose: 400.0 mg/kg/injection, schedule: Q04DX003 (ip), vehicle: saline 100 % of control

CC(=O)NNC(=O)c1ccccn1
inactive: dose: 4.0 mg/kg/injection, schedule: Q03HX024 (ip), vehicle: saline 109 % of control | dose: 8.0 mg/kg/injection, schedule: Q03HX008 (ip), vehicle: saline 96 % of control | dose: 8.0 mg/kg/injection, schedule: Q03HX016 (ip), vehicle: saline 111 % of control | dose: 8.0 mg/kg/injection, schedule: Q03HX024 (ip), vehicle: saline 105 % of control | dose: 16.0 mg/kg/injection, schedule: Q03HX008 (ip), vehicle: saline 105 % of control | dose: 16.0 mg/kg/injection, schedule: Q03HX016 (ip), vehicle: saline 98 % of control | dose: 16.0 mg/kg/injection, schedule: Q03HX024 (ip), vehicle: saline 104 % of control | dose: 32.0 mg/kg/injection, schedule: Q01DX009 (ip), vehicle: saline 104 % of control | dose: 32.0 mg/kg/injection, schedule: Q01DX009 (oral), vehicle: saline 102 % of control | dose: 32.0 mg/kg/injection, schedule: Q03HX008 (ip), vehicle: saline 103 % of control | dose: 32.0 mg/kg/injection, schedule: Q03HX016 (ip), vehicle: saline 104 % of control | dose: 32.0 mg/kg/injection, schedule: Q03HX024 (ip), vehicle: saline 108 % of control | dose: 32.0 mg/kg/injection, schedule: Q04DX003 (ip), vehicle: saline 108 % of control | dose: 64.0 mg/kg/injection, schedule: Q01DX001 (ip), vehicle: saline 102 % of control | dose: 64.0 mg/kg/injection, schedule: Q01DX001 (oral), vehicle: saline 106 % of control | dose: 64.0 mg/kg/injection, schedule: Q01DX009 (ip), vehicle: saline 108 % of control | dose: 64.0 mg/kg/injection, schedule: Q01DX009 (oral), vehicle: saline 114 % of control | dose: 64.0 mg/kg/injection, schedule: Q03HX008 (ip), vehicle: saline 109 % of control | dose: 64.0 mg/kg/injection, schedule: Q03HX016 (ip), vehicle: saline 111 % of control | dose: 64.0 mg/kg/injection, schedule: Q03HX024 (ip), vehicle: saline 117 % of control | dose: 64.0 mg/kg/injection, schedule: Q04DX003 (ip), vehicle: saline 100 % of control | dose: 64.0 mg/kg/injection, schedule: Q08DX002 (ip), vehicle: saline 104 % of control | dose: 75.0 mg/kg/injection, schedule: Q01DX Z (ip), vehicle: water 95 % of control and 105 % of control | dose: 100.0 mg/kg/injection, schedule: Q01DX Z (ip), vehicle: water 96 % of control and 103 % of control | dose: 128.0 mg/kg/injection, schedule: Q01DX001 (ip), vehicle: saline 100 % of control | dose: 128.0 mg/kg/injection, schedule: Q01DX001 (oral), vehicle: saline 108 % of control | dose: 128.0 mg/kg/injection, schedule: Q01DX009 (ip), vehicle: saline 124 % of control | dose: 128.0 mg/kg/injection, schedule: Q01DX009 (oral), vehicle: saline 119 % of control | dose: 128.0 mg/kg/injection, schedule: Q04DX003 (ip), vehicle: saline 103 % of control | dose: 128.0 mg/kg/injection, schedule: Q08DX002 (ip), vehicle: saline 103 % of control | dose: 150.0 mg/kg/injection, schedule: Q01DX Z (ip), vehicle: water 105 % of control and 89 % of control | dose: 256.0 mg/kg/injection, schedule: Q01DX001 (ip), vehicle: saline 109 % of control | dose: 256.0 mg/kg/injection, schedule: Q01DX001 (oral), vehicle: saline 108 % of control | dose: 256.0 mg/kg/injection, schedule: Q01DX009 (ip), vehicle: saline 103 % of control | dose: 256.0 mg/kg/injection, schedule: Q04DX003 (ip), vehicle: saline 105 % of control | dose: 256.0 mg/kg/injection, schedule: Q08DX002 (ip), vehicle: saline 109 % of control

CN1CN(c2ccccc2)C2(CCN(CCC3Oc4ccccc4O3)CC2)C1=O
inactive: dose: 100.0 mg/kg/injection, schedule: Q01DX001 (ip), vehicle: Klucel (hydroxypropylcellulose) (HPC) 102 % of control | dose: 200.0 mg/kg/injection, schedule: Q01DX001 (ip), vehicle: Klucel (hydroxypropylcellulose) (HPC) 98 % of control | dose: 400.0 mg/kg/injection, schedule: Q01DX001 (ip), vehicle: Klucel (hydroxypropylcellulose) (HPC) 103 % of control

CNc1ncc2nc(C)c(=O)n(C)c2n1
inactive: dose: 50.0 mg/kg/injection, schedule: Q01DX009 (ip), vehicle: Klucel (hydroxypropylcellulose) (HPC) 98 % of control | dose: 100.0 mg/kg/injection, schedule: Q01DX009 (ip), vehicle: Klucel (hydroxypropylcellulose) (HPC) 95 % of control

NCCSc1cc(O)c2c(c1N)C(=O)c1ccccc1C2=O
inactive: dose: 50.0 mg/kg/injection, schedule: Q01DX001 (ip), vehicle: carboxymethylcellulose (CMC) 97 % of control | dose: 100.0 mg/kg/injection, schedule: Q01DX001 (ip), vehicle: carboxymethylcellulose (CMC) 97 % of control | dose: 200.0 mg/kg/injection, schedule: Q01DX001 (ip), vehicle: carboxymethylcellulose (CMC) 100 % of control | dose: 400.0 mg/kg/injection, schedule: Q01DX001 (ip), vehicle: carboxymethylcellulose (CMC) 97 % of control

CC1(C)C=CS1(=O)=O
inactive: dose: 50.0 mg/kg/injection, schedule: Q01DX009 (ip), vehicle: saline with Tween-80 98 % of control | [1] 102 % of control | [2] 95 % of control

N#C/C(=C\C1CCC(OCC2CCCCC2)CC1)C1CCC([N+](=O)[O-])CC1 (stereo unspecified)
inactive: dose: 25.0 mg/kg/injection, schedule: Q04DX002 (ip), vehicle: saline with Tween-80 97 % of control | dose: 50.0 mg/kg/injection, schedule: Q04DX002 (ip), vehicle: saline with Tween-80 102 % of control | dose: 100.0 mg/kg/injection, schedule: Q04DX002 (ip), vehicle: saline with Tween-80 100 % of control and 91 % of control
